Test systems include HOP-62 NSCLC; DU-145 prostate; HOP-92 NSCLC; M14 melanoma; A498 renal; OVCAR-4 ovarian; HL-60(TB) leukemia; NCI-H226 lung; RPMI-8226 leukemia; RXF 393 renal.
Common to all, as to assay: NCI anticancer screen, dose series, 48 h

Several values for one entry are separate records, joined by “and”; a condition that tells them apart may be missing. Equal entries are not always repeated.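 Results reflect a 48-hour exposure of cells in 96-well plates to compound at five concentrations. GI50 is the concentration that inhibits growth by half. The concentration for full growth arrest is given as TGI.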

For `CC(=O)O[C@H]1CCC2[C@@H]3CC[C@]4(C)CC(=O)C=C[C@]4(C)C3CC[C@@]21C` (stereo partly drawn), the TGI is 97.9 µM with HOP-62 NSCLC; over 100 µM in the assay on DU-145 prostate; over 100 µM in the assay on HOP-92 NSCLC; 34.1 µM in the assay on M14 melanoma; over 100 µM with A498 renal; 31.8 µM in the assay on OVCAR-4 ovarian. Further, the TGI with HL-60(TB) leukemia was 66.7 µM; in the assay on NCI-H226 lung, over 77.7 µM; in the assay on RPMI-8226 leukemia it was 61.5 µM; in the assay with RXF 393 renal, 67.7 µM.
For the compound `CCc1nc(N)nc(N)c1-c1ccc(NC)c([N+](=O)[O-])c1`, the TGI was 37.7 µM in the assay on HOP-62 NSCLC; over 100 µM in the assay on DU-145 prostate; over 86.8 µM in the assay with HOP-92 NSCLC; over 100 µM in the assay on M14 melanoma; over 87 µM with A498 renal; over 100 µM with OVCAR-4 ovarian. Further, the TGI in the assay with HL-60(TB) leukemia was over 51.8 µM; in the assay on NCI-H226 lung, over 100 µM; in the assay on RPMI-8226 leukemia, over 43.3 µM; in the assay with RXF 393 renal, over 93.3 µM.
With `NC(=O)c1cc(Cl)ccc1NC(=O)/C=C/c1ccccc1`, the GI50 in the assay with HOP-62 NSCLC is 7.79 µM; with DU-145 prostate, 3.3 µM; in the assay with HOP-92 NSCLC, 9.88 µM; in the assay with M14 melanoma, 2.25 µM; in the assay with A498 renal it was 5.09 µM; with OVCAR-4 ovarian it was 2.77 µM. For the same compound, the GI50 was 1.28 µM in the assay on HL-60(TB) leukemia, 6.42 µM in the assay with NCI-H226 lung, 2.86 µM with RPMI-8226 leukemia and 2.19 µM with RXF 393 renal. Also, the TGI with HOP-62 NSCLC was over 41.6 µM; in the assay with DU-145 prostate it was over 24.4 µM; in the assay with HOP-92 NSCLC, over 43 µM; in the assay on M14 melanoma, over 31.5 µM; in the assay with A498 renal, over 53.7 µM; in the assay on OVCAR-4 ovarian, over 100 µM. Besides, the TGI with HL-60(TB) leukemia is 4.4 µM; in the assay with NCI-H226 lung, over 100 µM; with RPMI-8226 leukemia, over 100 µM; in the assay on RXF 393 renal it was 6.53 µM.
`CN1CCc2nc(N)nc(-c3nc(N)nc4c3CN(C)CC4)c2C1`: the TGI in the assay on HOP-62 NSCLC, with DU-145 prostate, in the assay on HOP-92 NSCLC, with M14 melanoma, in the assay with A498 renal and in the assay with OVCAR-4 ovarian was over 100 µM in each case. In addition, the TGI in the assay with HL-60(TB) leukemia, in the assay with NCI-H226 lung, in the assay with RPMI-8226 leukemia and with RXF 393 renal was over 100 µM in each case.
Take `C=C1C(=O)O[C@H]2[C@H]1CC/C(COC(=O)NCCCCNC(=O)OC/C1=C/CC[C@@]3(C)O[C@H]3[C@H]3OC(=O)C(=C)[C@@H]3CC1)=C\CC[C@@]1(C)O[C@@H]21`: the GI50 was 3.84 µM with HOP-62 NSCLC; 3.21 µM with DU-145 prostate; 0.287 µM in the assay on HOP-92 NSCLC; 1.97 µM in the assay with M14 melanoma; 6.36 µM in the assay on A498 renal; 1.77 µM in the assay on OVCAR-4 ovarian. Besides, the GI50 with HL-60(TB) leukemia was 0.256 µM; in the assay on NCI-H226 lung, 11.4 µM; in the assay on RPMI-8226 leukemia it was 0.547 µM; with RXF 393 renal, 1.44 µM. Besides, the TGI in the assay with HOP-62 NSCLC was 14 µM; with DU-145 prostate, 10.5 µM; in the assay with HOP-92 NSCLC, 1.06 µM; in the assay on M14 melanoma it was 4.82 µM; in the assay on A498 renal, 18.9 µM; with OVCAR-4 ovarian, 8.53 µM. Moreover, the TGI came out at 1.08 µM in the assay on HL-60(TB) leukemia, 30.5 µM in the assay on NCI-H226 lung, 3.08 µM in the assay with RPMI-8226 leukemia and 3.36 µM in the assay with RXF 393 renal.
On to `CC1=CC(=O)C=CC1=O`, for which the GI50 was 35.9 µM and 25.3 µM in the assay with HOP-62 NSCLC; 17.3 µM and 17.8 µM with DU-145 prostate; 16.7 µM in the assay on HOP-92 NSCLC; 22.7 µM and 20.5 µM with M14 melanoma; 30.6 µM and 51.5 µM in the assay with A498 renal; 15.1 µM with OVCAR-4 ovarian. In addition, the GI50 in the assay with HL-60(TB) leukemia was 2.37 µM and 3.51 µM; in the assay with NCI-H226 lung, 20.4 µM and 33.1 µM; in the assay on RPMI-8226 leukemia it was 5.11 µM and 3.32 µM; in the assay on RXF 393 renal, 16.8 µM and 12.1 µM. Besides, the TGI in the assay on HOP-62 NSCLC is 75.3 µM; in the assay on DU-145 prostate, 31 µM and 32.4 µM; in the assay with HOP-92 NSCLC, 33.4 µM; in the assay with M14 melanoma, 67.1 µM and 48.5 µM; with A498 renal, 96 µM and 144 µM; in the assay on OVCAR-4 ovarian, 30.4 µM. Further, the TGI in the assay with NCI-H226 lung is 48.6 µM and 240 µM; in the assay with RPMI-8226 leukemia, 39.9 µM and 102 µM; in the assay with RXF 393 renal, 31.5 µM and 27.4 µM.
For the compound `Cc1cc2ncnn2cc1Nc1ncc2c(n1)n(C1CCOCC1)c(=O)n2C`, the GI50 in the assay with HOP-62 NSCLC was 3.95 µM; in the assay with DU-145 prostate it was 6.92 µM; in the assay on HOP-92 NSCLC it was 2.01 µM; in the assay on M14 melanoma, 11.2 µM; with A498 renal, 0.319 µM; with OVCAR-4 ovarian, 3.94 µM. Also, the GI50 with HL-60(TB) leukemia was 23.3 µM; in the assay on NCI-H226 lung, 7.32 µM; with RPMI-8226 leukemia it was 4.41 µM; with RXF 393 renal, 3.73 µM. Moreover, the TGI with HOP-62 NSCLC is 78.2 µM; in the assay with DU-145 prostate, over 100 µM; with HOP-92 NSCLC, 18.8 µM; with M14 melanoma, over 100 µM; with A498 renal it was 2.22 µM; with OVCAR-4 ovarian, 42.9 µM. Besides, the TGI in the assay on HL-60(TB) leukemia was over 100 µM; in the assay on NCI-H226 lung, over 100 µM; with RPMI-8226 leukemia it was over 100 µM; in the assay on RXF 393 renal, 29.9 µM.
As to `O=C1/C(=C(/c2ccccc2)N2CCOCC2)Cc2ccccc21`, the GI50 was 12.5 µM with HOP-62 NSCLC; 0.948 µM with DU-145 prostate; 1.24 µM in the assay with HOP-92 NSCLC; 1.84 µM in the assay on M14 melanoma; 5.19 µM in the assay with A498 renal; 1.52 µM in the assay with OVCAR-4 ovarian. Further, the GI50 with HL-60(TB) leukemia is 0.235 µM; in the assay with NCI-H226 lung it was 3.39 µM; in the assay with RPMI-8226 leukemia, 0.522 µM; with RXF 393 renal, 0.883 µM. In addition, the TGI turned out to be 27.1 µM in the assay on HOP-62 NSCLC; 2.29 µM with DU-145 prostate; 3.01 µM in the assay with HOP-92 NSCLC; 4.67 µM with M14 melanoma; 11.4 µM in the assay on A498 renal; 3 µM in the assay on OVCAR-4 ovarian. In addition, the TGI in the assay on HL-60(TB) leukemia was 0.485 µM; with NCI-H226 lung, 8.99 µM; in the assay on RXF 393 renal it was 2.19 µM.
Take `CCCC(CCC)NCC(O)c1cc(-c2ccc(C(F)(F)F)cc2)nc(C(F)(F)F)c1` (stereo not drawn): the GI50 was 1.66 µM with HOP-62 NSCLC; 1.94 µM with DU-145 prostate; 1.43 µM in the assay with HOP-92 NSCLC; 1.75 µM in the assay with M14 melanoma; 1.35 µM in the assay on A498 renal; 1.83 µM with OVCAR-4 ovarian. In addition, the GI50 was 2.11 µM in the assay with HL-60(TB) leukemia, 1.59 µM in the assay on NCI-H226 lung, 2.15 µM in the assay with RPMI-8226 leukemia and 1.47 µM with RXF 393 renal. Besides, the TGI in the assay with HOP-62 NSCLC came to 3.12 µM; with DU-145 prostate, 3.39 µM; in the assay on HOP-92 NSCLC, 2.87 µM; in the assay with M14 melanoma, 3.32 µM; in the assay with A498 renal, 2.67 µM; in the assay on OVCAR-4 ovarian, 3.32 µM. Further, the TGI with HL-60(TB) leukemia worked out at 3.97 µM; in the assay with NCI-H226 lung, 3.08 µM; in the assay with RPMI-8226 leukemia, 4.87 µM; in the assay on RXF 393 renal it was 2.82 µM.

The values above are taken from PubChem BioAssay (NCI).
